# According to publication PMC12441834, “Highly Potent and Subtype-Selective Sperm-Specific Potassium Channel SLO3 Inhibitors Display High Tissue Exposure in the Murine Female Reproductive Tract” (ACS Pharmacology & Translational Science, 2025):
# “And” between values parts separate entries of the source, which are not always exact repeats. Identical values can stand only once.
# Tests used:
# [1] = target: Epidermal Growth Factor (EGF) (Homo sapiens, UniProt P00533); assay: LeadProfilingScreen radioligand binding
# Sequence of Epidermal Growth Factor (EGF) (P00533 25-1210): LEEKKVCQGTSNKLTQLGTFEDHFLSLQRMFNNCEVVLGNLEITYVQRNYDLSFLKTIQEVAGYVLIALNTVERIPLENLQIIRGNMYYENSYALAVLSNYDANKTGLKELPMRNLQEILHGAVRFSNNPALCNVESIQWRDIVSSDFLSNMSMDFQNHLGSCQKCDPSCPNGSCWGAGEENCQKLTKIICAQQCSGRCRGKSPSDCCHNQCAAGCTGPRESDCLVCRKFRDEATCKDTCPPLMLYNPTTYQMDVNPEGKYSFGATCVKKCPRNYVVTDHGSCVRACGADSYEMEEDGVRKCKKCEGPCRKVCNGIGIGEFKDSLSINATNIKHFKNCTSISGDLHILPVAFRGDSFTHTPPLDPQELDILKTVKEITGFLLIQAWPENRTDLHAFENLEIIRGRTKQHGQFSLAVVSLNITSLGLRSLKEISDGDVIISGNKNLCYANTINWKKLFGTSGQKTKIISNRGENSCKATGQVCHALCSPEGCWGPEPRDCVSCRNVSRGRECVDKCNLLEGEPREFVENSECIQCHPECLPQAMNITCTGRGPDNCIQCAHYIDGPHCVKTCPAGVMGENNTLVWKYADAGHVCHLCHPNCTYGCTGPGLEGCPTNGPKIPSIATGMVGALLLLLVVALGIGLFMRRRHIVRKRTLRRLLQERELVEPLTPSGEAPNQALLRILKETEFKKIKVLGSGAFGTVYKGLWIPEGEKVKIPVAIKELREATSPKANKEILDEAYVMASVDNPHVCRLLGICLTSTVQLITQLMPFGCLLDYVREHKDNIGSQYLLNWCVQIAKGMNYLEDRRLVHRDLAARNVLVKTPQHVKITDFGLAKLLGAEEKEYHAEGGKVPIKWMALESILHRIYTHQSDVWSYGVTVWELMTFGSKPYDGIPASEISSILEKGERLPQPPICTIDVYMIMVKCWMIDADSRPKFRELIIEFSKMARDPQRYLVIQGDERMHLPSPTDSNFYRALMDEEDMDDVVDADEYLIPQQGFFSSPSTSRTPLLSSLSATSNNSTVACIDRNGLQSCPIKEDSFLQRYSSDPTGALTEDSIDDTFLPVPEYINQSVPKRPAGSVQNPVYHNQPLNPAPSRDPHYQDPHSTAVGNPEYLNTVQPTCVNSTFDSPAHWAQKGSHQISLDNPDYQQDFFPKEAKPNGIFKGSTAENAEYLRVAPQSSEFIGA
# [2] = target: Leukotriene, Cysteinyl CysLT1 (Homo sapiens, UniProt Q9Y271); assay: LeadProfilingScreen radioligand binding
# Sequence of Leukotriene, Cysteinyl CysLT1 (Q9Y271 whole entry): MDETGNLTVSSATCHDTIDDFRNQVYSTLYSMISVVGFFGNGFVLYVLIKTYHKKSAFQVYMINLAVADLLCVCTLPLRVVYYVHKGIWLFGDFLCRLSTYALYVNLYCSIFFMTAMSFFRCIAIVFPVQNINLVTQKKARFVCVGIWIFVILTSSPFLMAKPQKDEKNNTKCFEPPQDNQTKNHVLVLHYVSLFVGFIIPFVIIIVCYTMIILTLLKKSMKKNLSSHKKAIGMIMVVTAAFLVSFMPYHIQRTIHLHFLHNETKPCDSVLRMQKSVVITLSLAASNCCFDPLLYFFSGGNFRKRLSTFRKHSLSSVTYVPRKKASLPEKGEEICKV
# [3] = tested on: Purinergic P2X; assay: LeadProfilingScreen radioligand binding; parameters: species or system rat
# [4] = target: T1, hSLO1 (Homo sapiens, UniProt Q12791); assay: SLO1 inhibition in HEK cells; type: cell-based
# T1 construct: expressed in transfected cells; host or cells: HEK293
# T1 sequence (Q12791 whole entry): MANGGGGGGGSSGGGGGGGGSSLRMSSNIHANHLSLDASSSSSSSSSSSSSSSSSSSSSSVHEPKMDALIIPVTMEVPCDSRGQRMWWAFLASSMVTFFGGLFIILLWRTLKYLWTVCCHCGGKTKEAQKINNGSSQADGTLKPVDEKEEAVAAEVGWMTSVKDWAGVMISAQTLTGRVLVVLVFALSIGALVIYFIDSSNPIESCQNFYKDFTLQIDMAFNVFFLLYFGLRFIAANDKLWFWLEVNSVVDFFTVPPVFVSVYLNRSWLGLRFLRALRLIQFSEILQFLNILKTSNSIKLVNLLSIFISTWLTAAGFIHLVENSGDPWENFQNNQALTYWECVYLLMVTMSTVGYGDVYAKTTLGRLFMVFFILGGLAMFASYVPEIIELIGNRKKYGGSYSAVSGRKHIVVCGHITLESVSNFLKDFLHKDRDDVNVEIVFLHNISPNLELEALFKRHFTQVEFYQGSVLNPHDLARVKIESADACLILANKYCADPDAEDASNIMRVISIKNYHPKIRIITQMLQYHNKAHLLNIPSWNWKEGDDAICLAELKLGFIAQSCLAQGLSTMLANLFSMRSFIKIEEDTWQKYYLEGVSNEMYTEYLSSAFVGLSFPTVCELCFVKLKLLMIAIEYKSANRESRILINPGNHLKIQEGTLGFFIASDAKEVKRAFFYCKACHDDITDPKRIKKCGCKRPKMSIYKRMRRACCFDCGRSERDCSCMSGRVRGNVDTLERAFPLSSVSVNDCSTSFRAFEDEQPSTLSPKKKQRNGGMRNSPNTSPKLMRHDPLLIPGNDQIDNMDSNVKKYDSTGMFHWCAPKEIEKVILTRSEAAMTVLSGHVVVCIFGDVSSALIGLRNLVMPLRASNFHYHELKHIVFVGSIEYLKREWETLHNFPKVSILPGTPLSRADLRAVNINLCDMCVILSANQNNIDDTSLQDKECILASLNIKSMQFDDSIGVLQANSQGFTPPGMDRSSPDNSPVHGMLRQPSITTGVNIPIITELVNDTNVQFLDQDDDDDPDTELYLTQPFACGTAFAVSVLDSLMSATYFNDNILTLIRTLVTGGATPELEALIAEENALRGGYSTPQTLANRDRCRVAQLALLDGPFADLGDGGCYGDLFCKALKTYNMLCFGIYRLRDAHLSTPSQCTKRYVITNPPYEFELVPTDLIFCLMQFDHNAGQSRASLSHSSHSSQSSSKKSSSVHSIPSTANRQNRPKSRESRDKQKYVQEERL
# Method: HEK293 cells were transfected with the bicistronic vector pBUD-CE4.1 containing the genes of interest and a gene conferring antibiotic resistance. Cells were exposed to gradients of selection antibiotics, and optimal growth conditions for the stable lines were as follows: SLO3 and γ2 (SLO3-γ2) supplemented with 700 μg/mL Zeocin (Invitrogen); human SLO1 and β1 (SLO1-β1) with 1 mg/mL G418 (Sigma) and 3 μg/mL puromycin (Corning, Thermo Fisher); and human SLO1 and β4 (SLO1-β4) with 250 μg/mL Zeocin and 3 μg/mL puromycin. All cell lines were grown in Dulbecco’s Modified Eagle Medium (Gibco, Thermo Fisher) supplemented with 10% fetal bovine serum, 1% penicillin–streptomycin (Millipore Sigma), and selection antibiotics. To generate cells expressing SLO1 and γ2, stable SLO1-expressing HEK293 cells were transiently transfected with expression vectors for γ2 and green fluorescent protein (GFP) in the presence of lipofectamine (Invitrogen) for 5 h.
# The cells were then washed and incubated in supplemented Dulbecco’s Modified Eagle Medium for 48 h before use. Patch-clamp electrophysiology was performed only on cells expressing GFP.
# Currents in HEK293 cells were measured in the whole-cell patch-clamp configuration with an Axopatch 200B amplifier, digitized with a Digidata 1440A, and interfaced with Clampex 10.6.0.13 (Molecular Devices). […] An isolated cell was located on an Axiovert 200 microscope (Zeiss), and a gigaohm seal was formed with a borosilicate pipette with resistance between 3 and 6 MΩ and filled with internal solution (140 mM KMeSO3, 10 mM HEPES, 10 mM MES, 1 mM EGTA, pH 7). The seal was then broken by applying a negative pressure. Cells were kept at a holding potential of −60 mV for 50 ms, tested with a stepped voltage protocol from −80 to +150 mV in 10 mV increments for 100 ms, and then dropped to −40 mV for 50 ms with 2.5 s between sweeps. This protocol was used to record currents present with increasing concentration of our compound of interest or 3 μL/mL vehicle (DMSO) in the bath solution. Individual cells were tested with between 1 and 5 concentrations of the compound of interest or until the patch was lost. Currents were allowed to stabilize before the initial recording and after the perfusion solution was changed before recording.
# [5] = target: Sigma σ1 (Homo sapiens, UniProt Q99720); assay: LeadProfilingScreen radioligand binding
# Sequence of Sigma σ1 (Q99720 whole entry): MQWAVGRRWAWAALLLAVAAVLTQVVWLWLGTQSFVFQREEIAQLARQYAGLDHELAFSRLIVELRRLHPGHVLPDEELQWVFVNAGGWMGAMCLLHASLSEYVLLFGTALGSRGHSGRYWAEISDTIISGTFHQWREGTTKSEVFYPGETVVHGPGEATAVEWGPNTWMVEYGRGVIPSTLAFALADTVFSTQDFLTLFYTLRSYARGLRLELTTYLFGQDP
# [6] = target: Transporter, Norepinephrine (NET) (Homo sapiens, UniProt P23975); assay: LeadProfilingScreen radioligand binding
# Sequence of Transporter, Norepinephrine (NET) (P23975 whole entry): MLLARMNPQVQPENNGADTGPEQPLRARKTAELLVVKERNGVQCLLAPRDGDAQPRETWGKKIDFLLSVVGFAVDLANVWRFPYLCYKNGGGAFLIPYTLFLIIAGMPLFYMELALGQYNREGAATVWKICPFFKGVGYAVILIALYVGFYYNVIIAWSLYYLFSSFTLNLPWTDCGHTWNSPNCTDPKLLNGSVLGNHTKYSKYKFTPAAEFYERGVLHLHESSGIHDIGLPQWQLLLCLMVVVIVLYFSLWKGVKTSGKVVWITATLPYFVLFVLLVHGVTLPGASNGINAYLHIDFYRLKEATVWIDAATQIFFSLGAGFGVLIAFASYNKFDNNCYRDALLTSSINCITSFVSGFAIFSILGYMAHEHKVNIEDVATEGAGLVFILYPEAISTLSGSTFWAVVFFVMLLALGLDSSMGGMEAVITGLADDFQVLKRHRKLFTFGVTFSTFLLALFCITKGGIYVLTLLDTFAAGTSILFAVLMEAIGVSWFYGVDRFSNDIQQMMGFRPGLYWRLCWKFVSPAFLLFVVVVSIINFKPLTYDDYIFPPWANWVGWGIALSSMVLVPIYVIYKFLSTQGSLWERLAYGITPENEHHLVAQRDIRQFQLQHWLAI
# [7] = tested on: Phorbol Ester; assay: LeadProfilingScreen radioligand binding; parameters: species or system mouse
# [8] = Multispecies hepatocyte MetID; type: in vitro ADME, cynomolgus monkey; conditions: 4 h incubation with hepatocytes, 10 μM
# Method: Metabolites were identified after preincubating each compound at a 10 μM final concentration with 2.5 × 10^5 hepatocytes from human, dog, cynomolgus monkey, and rat in 200 μL of Optiincubate buffer (BioIVT, Westbury, NY). […] After centrifugation, 60 μL of the supernatant was transferred to 60 μL of water for LC-MS analysis. Samples were analyzed using a Thermo Scientific Vanquish UHPLC consisting of a VH-P10-A pump, a VH-A10-A sampler module, a VH-C10-A column compartment, and the VF-D11-A UV detector coupled to an Orbitrap Fusion Lumos instrument with UVPD. A binary solvent system consisting of (A) water with 0.1% formic acid and (B) acetonitrile with 0.1% formic acid was used with an Accucore Vanquish C18+, 2.1 mm × 100 mm, 1.5 μm, UHPLC column maintained at 40 °C. The data generated by data-dependent acquisition via normal acquisition and AcquireX were processed manually with Thermo Scientific FreeStyle and assisted by Compound Discoverer 3.3.1.111 to aid in the structural assignments.
# [9] = target: Opiate δ1 (OP1, DOP) (Homo sapiens, UniProt P41143); assay: LeadProfilingScreen radioligand binding
# Sequence of Opiate δ1 (OP1, DOP) (P41143 whole entry): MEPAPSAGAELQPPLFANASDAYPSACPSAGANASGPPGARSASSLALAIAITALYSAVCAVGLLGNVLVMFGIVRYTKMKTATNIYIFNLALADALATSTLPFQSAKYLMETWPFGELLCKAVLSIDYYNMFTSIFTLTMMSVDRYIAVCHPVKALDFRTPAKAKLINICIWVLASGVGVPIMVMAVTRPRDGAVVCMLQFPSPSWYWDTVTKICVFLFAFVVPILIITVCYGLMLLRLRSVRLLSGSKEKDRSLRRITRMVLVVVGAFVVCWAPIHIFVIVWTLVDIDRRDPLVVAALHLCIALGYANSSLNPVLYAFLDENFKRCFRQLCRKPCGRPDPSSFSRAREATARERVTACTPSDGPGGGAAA
# [10] = target: Bradykinin B1 (Homo sapiens, UniProt P46663); assay: LeadProfilingScreen radioligand binding
# Sequence of Bradykinin B1 (P46663 whole entry): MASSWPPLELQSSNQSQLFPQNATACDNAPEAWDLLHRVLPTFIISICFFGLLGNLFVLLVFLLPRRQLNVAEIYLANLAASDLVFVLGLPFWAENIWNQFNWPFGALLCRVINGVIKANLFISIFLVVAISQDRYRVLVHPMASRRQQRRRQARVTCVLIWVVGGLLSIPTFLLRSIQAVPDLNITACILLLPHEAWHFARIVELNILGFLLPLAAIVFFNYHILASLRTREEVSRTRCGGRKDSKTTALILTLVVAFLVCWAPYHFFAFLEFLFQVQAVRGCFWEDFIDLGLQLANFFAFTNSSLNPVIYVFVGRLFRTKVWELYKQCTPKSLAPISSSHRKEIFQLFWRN
# [11] = tested on: GABAA, Muscimol, Central; assay: LeadProfilingScreen radioligand binding; parameters: species or system rat
# [12] = tested on: Rolipram; assay: LeadProfilingScreen radioligand binding; parameters: species or system rat
# [13] = target: Serotonin (5-Hydroxytryptamine) 5-HT3 (Homo sapiens, UniProt P46098); assay: LeadProfilingScreen radioligand binding
# Sequence of Serotonin (5-Hydroxytryptamine) 5-HT3 (P46098 24-478): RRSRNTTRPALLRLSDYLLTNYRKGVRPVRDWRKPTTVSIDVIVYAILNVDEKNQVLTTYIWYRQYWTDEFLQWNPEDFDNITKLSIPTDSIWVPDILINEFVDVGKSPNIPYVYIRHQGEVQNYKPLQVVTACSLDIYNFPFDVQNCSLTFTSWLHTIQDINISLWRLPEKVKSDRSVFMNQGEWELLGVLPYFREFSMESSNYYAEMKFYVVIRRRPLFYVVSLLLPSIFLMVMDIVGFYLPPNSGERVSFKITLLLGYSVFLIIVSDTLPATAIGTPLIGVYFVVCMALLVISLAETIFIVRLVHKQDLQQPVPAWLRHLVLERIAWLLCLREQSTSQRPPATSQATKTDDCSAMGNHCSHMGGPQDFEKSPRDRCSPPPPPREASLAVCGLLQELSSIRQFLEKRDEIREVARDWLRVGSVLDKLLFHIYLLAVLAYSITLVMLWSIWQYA
IC50 [4] [µM],SLO1 selectivity (fold selective for SLO3) ([4]; SLO1 IC50 / hSLO3 IC50) [fold],SMILES,inhibition at 10 µM [1] [%],inhibition at 10 µM [2] [%],% inhibition at 10 μM [3] [%],HEK hSLO1 % inhib. at 30 μM ([4]; 30 μM),inhibition at 10 µM [5] [%],inhibition at 10 µM [6] [%],% inhibition at 10 μM [7] [%],"% of Parent Related Material, Cyno [8]",inhibition at 10 µM [9] [%],inhibition at 10 µM [10] [%],% inhibition at 10 μM [11] [%],% inhibition at 10 μM [12] [%],inhibition at 10 µM [13] [%],"inhibition at 30 µM ([4]; HEK293, read-out: HEK hSLO1 % inhib. at 30 μM) [%]"
,,O=C(c1ccc(OCc2ccc(OC(F)(F)F)cc2)cc1)N1CCN(c2ccc(C(F)(F)F)cn2)CC1 [VU6032735],5,-3,1,No inhibition,-3,30,12,> 98%,7,4,0,7,-11,
109,802,Cc1cc(Cl)cc2sc(OC3CCN(C(=O)CCCS(=O)(=O)c4cccc(Br)c4)CC3F)nc12 (stereo not shown) [VU6045330],,,,,,,,,,,,,,
,,Cc1cc(Cl)cc2sc(O[C@H]3CCN(C(=O)CCCS(=O)(=O)c4cccc(Br)c4)C[C@H]3F)nc12 [VU6047606],2,2,1,,62,44,22,82.77% and > 82%,12,-5,1,19,-17,10
